{"source": "patent US20160082082A1", "about": "“USE OF THERAPEUTIC PEPTIDES FOR THE TREATMENT AND PREVENTION OF CANCER” (ARIZONA CANCER THERAPEUTICS L.L.C., priority 2008, published 2016)", "key": {"[1]": {"system": "BT-20 breast cancer cells", "experiment": "Cellular uptake of labelled peptide (fluorescence microscopy)", "type": "cell-based, human", "settings": "cells pulsed in vitro", "method": "FIGS. 1A-1F. […] FIG. 1A) Human MUC1's cytoplasmic amino acid sequence (MUC1CT; SEQ ID NO: 15), which includes an EGFR/src phosphorylation site (underline; SEQ ID NO: 15, residues 46-49) and β-catenin binding site (double underline; SEQ ID NO: 15, residues 50-59). […] The cells were treated with EGF (30′ EGF, 10 ng/ml) or without (-S, no serum) and protein lysates were generated and separated on an SDS-PAGE. The lysates were immunoblotted (IB) for EGFR (1005) and β-actin (AC-15) FIG. 1D-F MDA-MB-468 cells were treated with EGF (10 ng/ml) and either (FIG. 1D) hPMIP (10 μM), (FIG. 1E) PTD4 (10 μM) or (FIG. 1F) PBS overnight. The cells were fixed, probed for MUC1 (Texas Red) and β-catenin (FITC) and examined on a confocal microscope (400×). Co-localization (arrows) analysis was performed using Image Pro Plus and is designated with white pixels.\nBT20 cells were treated for 2 hours with 200 μM hPMIP tagged with FITC and fixed in 4% Paraformaldhyde/PBS. Fixed cells were washed 3 times with 0.02% NaN3/PBS and incubated with Slowfade Gold antifade reagent with DAPI (Invitrogen). Cells were visualized with a fluorescence DMLB Leica compound microscope. […]"}, "[2]": {"system": "MDA-MB-231 breast cancer cells implanted into the mammary fat pad of scid mice", "experiment": "Human breast tumor xenograft in mammary fat pad", "type": "in vivo", "method": "FIGS. 3A-3E. […] FIG. 3A) MDA-MB-231 cells in Matrigel were injected into the mammary fat pad of scid mice, and daily peptide treatment (50 μg/g body weight of hPMIP or PTD4) began when tumors reached 100 mm^3 (PTD4 and hPMIP n=8) and primary tumor growth was assessed (*, p=0.028). FIG. 3B) After the end of treatment, the amount of time the tumors took to progress to 1000 mm^3 was measured (ANOVA, **, p=0.03). […] FIG. 3D) MDA-MB-231 cells in Matrigel were injected into the mammary fat pad of scid mice, and daily peptide treatment (50 μg/g of hPMIP or PTD4) began when tumors reached 500 mm^3 (PTD4 n=4 and hPMIP n=6) and primary tumor growth was assessed. FIG. 3E) Following 21 days of treatment the tumors were resected immediately and tumor regrowth at the primary site and spread to secondary mammary glands was monitored (PTD4 n=4 and hPMIP n=4). Error bars represent standard error.\nImmunocompromised (severe combined immune deficiency (scid)) mice (Taconic, Rockville, Md.) were tested for the presence of serum IgG and found to be <20 μg/ml IgG. Female mice (four to six weeks old) were injected with 1×10^7 cells embedded in Matri-gel (BD Biosciences) into the mammary fat pad and allowed to grow to either 100 mm^3 or 500 mm^3, based on the formula a^2×b/2 where a is the smaller diameter and b is the larger diameter. Mice were injected i.p. with 50 μg/g body weight of either PMIP or PTD4 control peptide for 21 days and measured with calipers every two days. Either at the end of 21 days, or after the tumor had reached 800 mm^3, tumors were resected by injecting the mice with buprenorphine (2.5 mg/kg body weight, Infusion Solutions, Totowa, N.J.) at least one hour prior to resection and anesthetizing the mice with isoflurane (Abbott, Abbott Park, Ill.). Following surgery, mice were treated with buprenorphine (2.5 mg/kg body weight) 8 and 16 hrs post-surgery. Animals were then followed for 10 days to examine regrowth at the primary tumor site or at secondary mammary glands, then sacrificed."}, "[3]": {"system": "MMTV-pyV mT induced mammary gland tumors", "experiment": "MMTV-pyV mT transgenic mouse spontaneous breast cancer", "type": "in vivo, mice", "method": "FIGS. 4A-4D. […] FIG. 4A) MMTV-pyV mT transgenic mice were injected with FITC-msPMIP (50 μg/g body weight), sacrificed four hours later and various tissues visualized using fluorescence microscopy. FITC-msPMIP localization in the mouse mammary gland tumors is shown (2.5× and 8×). FIG. 4B) Mammary gland tumors (>0.5 cm in diameter) were allowed to develop and mice were injected daily (50 μg/g body weight, 21 day treatment, intraperitoneal (i.p.) injection, 1× per day) with either msPMIP (7 mice) or PTD4 (6 mice). At the end of treatment, animals were sacrificed and proteins lysates made of the tumors for later analysis. […] Numbers above data are number of tumors that meet the size criteria over the total potential tumor sites.\nMMTV-pyV mT mice (33), obtained from Jackson Laboratories) entered into study upon the development of tumors that measured ≧0.5 cm in at least one diameter. Only mice greater than seven weeks of age were included in the study and mice that developed fluid cysts were excluded. Animals were injected i.p. with 50 μg/g body weight of msPMIP or PTD4 once daily for 21 days. Each of ten mammary glands were measured using calipers every two days, and measurements were used to determine tumor volume based on the formula a^2×b/2, with a being the smaller diameter and b being the larger diameter. After treatment for 21 days, mice were sacrificed by CO2 inhalation and tissues resected. Several msPMIP treated mice were injected with FITC-msPMIP (50 μg/g body weight) one or four hours prior to sacrifice and intact tissues were visualized using a fluorescence MZFLIII Leica dissection microscope."}, "[4]": {"system": "human breast cancer cell line MDA-MB-231", "experiment": "Annexin V and cell number quantification on plastic", "type": "cell-based", "settings": "MDA-MB-231 grown on plastic", "source_text": "These cells were chosen as they represent models of high and low MUC1 expression, respectively (data not shown)."}, "MDA-MB-231 cells": {"system": "MDA-MB-231 cells", "experiment": "Invasion assay (Transwell into Type I collagen)", "type": "cell-based, human", "settings": "MDA-MB-231, 50 μM, vs PTD4 or PBS", "method": "FIGS. 2A-2C. […] FIG. 2A) BT20 cells were cultured in a 96-well dish (10^4 cells/well) and treated daily for 6 days with either hPMIP (10 μM) or PTD4 (10 μM) in RPMI 1640/1% FBS. An MTT assay was performed to quantify cell number after treatment was complete (***, p<0.0001). Error bars represent standard error. FIG. 2B) MDA-MB-231 and FIG. 2C) BT20 cell lines were treated with either hPMIP (50 μM), PTD4 (50 μM), or PBS overnight, labeled with Calcein AM, allowed to invade through a Transwell (8.0 μM) insert into a Type I collagen gel, and the invaded cells were fluorescently measured. (ANOVA, *p<0.0001, **p<0.0001, #p=0.007, ##p=0.007). Error bars represent standard deviation.\nCollagen matrix (0.9 mg/ml Type I Rat tail collagen (BD Biosciences, Billerica, Mass.), 83.0% (v/v) M-199 medium (Life Technologies), and 0.18% NaHCO3 (Fisher, Hampton, N.H.)) was poured into a 24 well plate. Prior to collagen polymerization a […] pore transwell insert (Corning Inc., Corning, N.Y.) was placed on top of the matrix. The polymerized collagen was rehydrated using a chemoattractant (20% FBS/RPMI 1640 with […] EGF). MDA-MB-231 cells were treated with 50 μM of peptide in serum free RPMI 1640 media for 17 hours. […] The number of fluorescently labeled cells that had invaded into the collagen were measured using a Molecular Devices spectrophotometer (Ex:485, Em:538, and Cutoff:530)."}, "[5]": {"system": "MMTV-pyV mT induced mammary gland tumors", "experiment": "MMTV-pyV mT transgenic mouse spontaneous breast cancer", "type": "in vivo", "settings": "human peptide in MMTV-pyV mT mice"}}, "note": "“And” between values parts separate entries of the source, which are not always exact repeats. Identical values can stand only once. Where no end group is shown, it is not given here."}
{"substance": "FITC-hPMIP: FITC-labeled PTD4 conjugated to MIP peptides (human) (YARAAARQARAPYEKVSAGNGGSSLS; not fully specified (N-terminus); also: FITC label, place not given here)", "values": [{"measurement": "presence and retention of fluorescent peptide in cells", "setting": "[1]", "result": "found to contain the fluorescent peptide and it was retained over time"}]}
{"substance": "PTD4: PTD4 protein transduction domain, SEQ ID NO: 16, used as control peptide (YARAAARQARA; synthetic protein translocation domain)", "values": [{"measurement": "average tumor volume of regrowth / secondary mammary gland tumors after resection", "setting": "[2]; treatment begun at 500 mm^3, 50 μg/g i.p. 21 days, resection, 10 days follow-up without drug", "result": 760, "unit": "mm^3"}, {"measurement": "number of tumors sized 100-300 mm^3, end vs beginning of treatment", "setting": "[3]; 50 μg/g i.p. daily, 21 days", "result": "doubled"}, {"measurement": "tumor growth rate", "setting": "[3]; 50 μg/g i.p. daily, 21 days", "result": 69, "unit": "mm^3/day"}, {"measurement": "tumors larger than 100 mm^3 (of possible tumor sites)", "setting": "[3]; 50 μg/g i.p. daily, 21 days", "result": 47, "unit": "%"}, {"measurement": "tumors that grew larger than 500 mm^3 by the end of the study", "setting": "[3]; 50 μg/g i.p. daily, 21 days", "result": 13, "unit": "%"}, {"measurement": "total tumor growth for all tumor sites", "setting": "[3]; 50 μg/g i.p. once daily, over 21 days of treatment", "result": "589.5%±283.6% and ~590%"}, {"measurement": "number of established tumors that completely regressed", "setting": "[3]; 21 day treatment, PTD4 n=60, PMIP n=70 tumor sites", "result": "none"}]}
{"substance": "hPMIP: human PMIP, SEQ ID NO: 17: MUC1 mimetic 15 amino acid peptide in tandem with PTD4 protein transduction domain (YARAAARQARAPYEKVSAGNGGSSLS; fusion protein)", "values": [{"measurement": "primary tumor size vs control", "setting": "[2]; treatment begun at 100 mm^3, 50 μg/g i.p. 21 days, p=0.028", "result": "significant decrease in tumor size"}, {"measurement": "length of time to reach resection size of 800 mm^3", "setting": "[2]; treatment begun at 100 mm^3, after end of treatment, p=0.03", "result": "significant increase in the length of time"}, {"measurement": "tumor regrowth and spread 10 days after resection", "setting": "[2]; treatment begun at 100 mm^3, resection at 800 mm^3", "result": "substantially decreased"}, {"measurement": "number of regrowth and secondary mammary gland tumors", "setting": "[2]; treatment begun at 500 mm^3, after resection", "result": "found in equal number for both treatment groups"}, {"measurement": "effect on apoptosis (Annexin V)", "setting": "[4]", "result": "no detectable effects"}, {"measurement": "effect on cell growth (cell number)", "setting": "[4]", "result": "no detectable effects"}, {"measurement": "invasion into Type I collagen matrix", "setting": "MDA-MB-231 cells", "result": "strongly inhibited cellular invasion"}, {"measurement": "effect on tumor growth", "setting": "[5]", "result": "no effect on tumor growth"}]}
